Experimental data: PubChem BioAssay AID1963979 (Molecular Pharmacology Branch, DTP, NCI, 2024)

System: 361931-004-R-J1-PDC multicell spheroid viability
Test: Anticancer human tumor 361931-004-R-J1-PDC patient-derived colon adenocarcinoma cell line growth inhibition [PI3K]
Conditions: for IC50: curve of first compound; for viability, T/C: stronger effect = lower value
Summary of the method: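 Viability of mixed-cell spheroids was determined after exposure to pairwise combinations, one partner being inavolisib, alpelisib, duvelisib or copanlisib. Highest tested concentration matched clinical Cmax where known and 10 microM where not, descending in half-log steps.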

[1] = second compound 0.0316 µM, first compound 0.0316 µM
[2] = second compound 0.0316 µM, first compound 0.1 µM
[3] = second compound 0.0316 µM, first compound 0.316 µM
[4] = second compound 0.0316 µM, first compound 1 µM
[5] = second compound 0.0316 µM, first compound 3.16 µM
[6] = second compound 0.0316 µM, first compound 10 µM
[7] = second compound 0.1 µM, first compound 0.0316 µM
[8] = second compound 0.1 µM, first compound 0.1 µM
[9] = second compound 0.1 µM, first compound 0.316 µM
[10] = second compound 0.1 µM, first compound 1 µM
[11] = second compound 0.1 µM, first compound 3.16 µM
[12] = second compound 0.1 µM, first compound 10 µM
[13] = second compound 0.316 µM, first compound 0.0316 µM
[14] = second compound 0.316 µM, first compound 0.1 µM
[15] = second compound 0.316 µM, first compound 0.316 µM
[16] = second compound 0.316 µM, first compound 1 µM
[17] = second compound 0.316 µM, first compound 3.16 µM
[18] = second compound 0.316 µM, first compound 10 µM
[19] = second compound 1 µM, first compound 0.0316 µM
[20] = second compound 1 µM, first compound 0.1 µM
[21] = second compound 1 µM, first compound 0.316 µM
[22] = second compound 1 µM, first compound 1 µM
[23] = second compound 1 µM, first compound 3.16 µM
[24] = second compound 1 µM, first compound 10 µM
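Further: spheroids exposed to agents for seven days before readout.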

## C=CC(=O)N1CCN(c2nc(=O)n(-c3c(C)ccnc3C(C)C)c3nc(-c4c(O)cccc4F)c(F)cc23)C(C)C1 (stereo unspecified) + CC(Nc1ncnc2nc[nH]c12)c1cc2cccc(Cl)c2c(=O)n1-c1ccccc1
Second compound 0.0316 µM
  IC50: > 10 µM
Second compound 0.1 µM
  IC50: > 10 µM
Second compound 0.316 µM
  IC50: > 10 µM
Second compound 1 µM
  IC50: > 10 µM
Second compound 3.16 µM
  IC50: > 10 µM
Second compound 10 µM
  IC50: > 10 µM
[1]
  viability, T/C: 102%
[2]
  viability, T/C: 102%
[3]
  viability, T/C: 104%
[4]
  viability, T/C: 104%
[5]
  viability, T/C: 102%
[6]
  viability, T/C: 99.3%
[7]
  viability, T/C: 100%
[8]
  viability, T/C: 95.8%
[9]
  viability, T/C: 103%
[10]
  viability, T/C: 111%
[11]
  viability, T/C: 104%
[12]
  viability, T/C: 92.5%
[13]
  viability, T/C: 105%
[14]
  viability, T/C: 108%
[15]
  viability, T/C: 103%
[16]
  viability, T/C: 98.3%
[17]
  viability, T/C: 107%
[18]
  viability, T/C: 86.8%
[19]
  viability, T/C: 98.7%
[20]
  viability, T/C: 109%
[21]
  viability, T/C: 103%
[22]
  viability, T/C: 106%
[23]
  viability, T/C: 102%
[24]
  viability, T/C: 90.5%
Second compound 3.16 µM, first compound 0.0316 µM
  viability, T/C: 100%
Second compound 3.16 µM, first compound 0.1 µM
  viability, T/C: 103%
Second compound 3.16 µM, first compound 0.316 µM
  viability, T/C: 99.9%
Second compound 3.16 µM, first compound 1 µM
  viability, T/C: 104%
Second compound 3.16 µM, first compound 3.16 µM
  viability, T/C: 106%
Second compound 3.16 µM, first compound 10 µM
  viability, T/C: 89.9%
Second compound 10 µM, first compound 0.0316 µM
  viability, T/C: 104%
Second compound 10 µM, first compound 0.1 µM
  viability, T/C: 108%
Second compound 10 µM, first compound 0.316 µM
  viability, T/C: 98.2%
Second compound 10 µM, first compound 1 µM
  viability, T/C: 100%
Second compound 10 µM, first compound 3.16 µM
  viability, T/C: 101%
Second compound 10 µM, first compound 10 µM
  viability, T/C: 93.6%

## Cn1cnc2c(F)c(Nc3ccc(Br)cc3Cl)c(C(=O)NOCCO)cc21 + CC(Nc1ccc2c(c1)OCCn1cc(N3C(=O)OCC3C(F)F)nc1-2)C(N)=O
Second compound 0.00316 µM
  IC50: 2.59 µM
Second compound 0.01 µM
  IC50: > 3 µM
Second compound 0.0316 µM
  IC50: 2.11 µM
Second compound 0.1 µM
  IC50: 1.14 µM
Second compound 0.316 µM
  IC50: 0.556 µM
Second compound 1 µM
  IC50: 0.158 µM
Second compound 0.00316 µM, first compound 0.00949 µM
  viability, T/C: 91.9%
Second compound 0.00316 µM, first compound 0.03 µM
  viability, T/C: 94.6%
Second compound 0.00316 µM, first compound 0.0949 µM
  viability, T/C: 80.4%
Second compound 0.00316 µM, first compound 0.3 µM
  viability, T/C: 80.1%
Second compound 0.00316 µM, first compound 0.949 µM
  viability, T/C: 75%
Second compound 0.00316 µM, first compound 3 µM
  viability, T/C: 45.5%
Second compound 0.01 µM, first compound 0.00949 µM
  viability, T/C: 99.4%
Second compound 0.01 µM, first compound 0.03 µM
  viability, T/C: 92.8%
Second compound 0.01 µM, first compound 0.0949 µM
  viability, T/C: 81.1%
Second compound 0.01 µM, first compound 0.3 µM
  viability, T/C: 72.4%
Second compound 0.01 µM, first compound 0.949 µM
  viability, T/C: 63.8%
Second compound 0.01 µM, first compound 3 µM
  viability, T/C: 51.9%
Second compound 0.0316 µM, first compound 0.00949 µM
  viability, T/C: 96.2%
Second compound 0.0316 µM, first compound 0.03 µM
  viability, T/C: 92.9%
Second compound 0.0316 µM, first compound 0.0949 µM
  viability, T/C: 83.8%
Second compound 0.0316 µM, first compound 0.3 µM
  viability, T/C: 70.4%
Second compound 0.0316 µM, first compound 0.949 µM
  viability, T/C: 62%
Second compound 0.0316 µM, first compound 3 µM
  viability, T/C: 45%
Second compound 0.1 µM, first compound 0.00949 µM
  viability, T/C: 90.8%
Second compound 0.1 µM, first compound 0.03 µM
  viability, T/C: 83.3%
Second compound 0.1 µM, first compound 0.0949 µM
  viability, T/C: 76.1%
Second compound 0.1 µM, first compound 0.3 µM
  viability, T/C: 73.2%
Second compound 0.1 µM, first compound 0.949 µM
  viability, T/C: 53.8%
Second compound 0.1 µM, first compound 3 µM
  viability, T/C: 28.5%
Second compound 0.316 µM, first compound 0.00949 µM
  viability, T/C: 86%
Second compound 0.316 µM, first compound 0.03 µM
  viability, T/C: 82.8%
Second compound 0.316 µM, first compound 0.0949 µM
  viability, T/C: 63.9%
Second compound 0.316 µM, first compound 0.3 µM
  viability, T/C: 62.4%
Second compound 0.316 µM, first compound 0.949 µM
  viability, T/C: 43.8%
Second compound 0.316 µM, first compound 3 µM
  viability, T/C: 14.7%
Second compound 1 µM, first compound 0.00949 µM
  viability, T/C: 72.8%
Second compound 1 µM, first compound 0.03 µM
  viability, T/C: 57.3%
Second compound 1 µM, first compound 0.0949 µM
  viability, T/C: 57.1%
Second compound 1 µM, first compound 0.3 µM
  viability, T/C: 46.4%
Second compound 1 µM, first compound 0.949 µM
  viability, T/C: 26.2%
Second compound 1 µM, first compound 3 µM
  viability, T/C: 8.6%

## CC1(C)CCC(CN2CCN(c3ccc(C(=O)NS(=O)(=O)c4ccc(NCC5CCOCC5)c([N+](=O)[O-])c4)c(Oc4cnc5[nH]ccc5c4)c3)CC2)=C(c2ccc(Cl)cc2)C1 + COc1c(OCCCN2CCOCC2)ccc2c3n(c(=NC(=O)c4cnc(N)nc4)nc12)CCN3
Second compound 0.00316 µM
  IC50: 5.64 µM
Second compound 0.01 µM
  IC50: 5.57 µM
Second compound 0.0316 µM
  IC50: 4.87 µM
Second compound 0.1 µM
  IC50: 3.49 µM
Second compound 0.316 µM
  IC50: 0.555 µM
Second compound 1 µM
  IC50: < 0.0316 µM
Second compound 0.00316 µM, first compound 0.0316 µM
  viability, T/C: 92.3%
Second compound 0.00316 µM, first compound 0.1 µM
  viability, T/C: 98.1%
Second compound 0.00316 µM, first compound 0.316 µM
  viability, T/C: 108%
Second compound 0.00316 µM, first compound 1 µM
  viability, T/C: 104%
Second compound 0.00316 µM, first compound 3.16 µM
  viability, T/C: 95.4%
Second compound 0.00316 µM, first compound 10 µM
  viability, T/C: 4.89%
Second compound 0.01 µM, first compound 0.0316 µM
  viability, T/C: 106%
Second compound 0.01 µM, first compound 0.1 µM
  viability, T/C: 98.7%
Second compound 0.01 µM, first compound 0.316 µM
  viability, T/C: 104%
Second compound 0.01 µM, first compound 1 µM
  viability, T/C: 101%
Second compound 0.01 µM, first compound 3.16 µM
  viability, T/C: 94.6%
Second compound 0.01 µM, first compound 10 µM
  viability, T/C: 3.83%
[1]
  viability, T/C: 96%
[2]
  viability, T/C: 94.9%
[3]
  viability, T/C: 96.2%
[4]
  viability, T/C: 90.4%
[5]
  viability, T/C: 78.6%
[6]
  viability, T/C: 3.08%
[7]
  viability, T/C: 82.5%
[8]
  viability, T/C: 76.6%
[9]
  viability, T/C: 76.8%
[10]
  viability, T/C: 81%
[11]
  viability, T/C: 54.5%
[12]
  viability, T/C: 1.89%
[13]
  viability, T/C: 53%
[14]
  viability, T/C: 51.6%
[15]
  viability, T/C: 51.4%
[16]
  viability, T/C: 48.6%
[17]
  viability, T/C: 36.4%
[18]
  viability, T/C: 2.15%
[19]
  viability, T/C: 25.9%
[20]
  viability, T/C: 25.6%
[21]
  viability, T/C: 21.4%
[22]
  viability, T/C: 25.6%
[23]
  viability, T/C: 19.8%
[24]
  viability, T/C: 2.71%
